Test results reported in US3966718A, “7-β-Acylamino-ceph-3-ems and salts and esters therefor” (Beecham Group Limited, priority 1973, dated 1976).
Values after ≈ are worked out from the molar mass of the structure shown. Counter-ions that a name gives are not always drawn. Like-named read-outs stand apart in the source and are kept apart here.

Tests used:
Assay type in all cases: cell-based
[1] = system: Gram-positive and Gram-negative organisms; assay: antibacterial activity (general statement); conditions: in words
Salmonella typhi = assay: MIC on nutrient agar; conditions: Salmonella enterica, read-out: minimum inhibitory concentration (MIC)
B. subtilis = assay: MIC on (nutrient) agar; conditions: Bacillus subtilis; B. subtilis, agar; read-out: minimum inhibitory concentration (MIC)
Staph. aureus Russell = assay: MIC on (nutrient) agar; conditions: Staphylococcus aureus; Staph. aureus Russell, agar; read-out: minimum inhibitory concentration (MIC)
E. coli JT 1 = assay: MIC on nutrient agar; conditions: Escherichia coli
Klebsiella aerogenes A = assay: MIC on nutrient agar; conditions: Klebsiella aerogenes A, nutrient agar; read-out: minimum inhibitory concentration (MIC)
Shigella sonnei = assay: MIC on nutrient agar; conditions: read-out: minimum inhibitory concentration (MIC)
Proteus mirabilis C977 = assay: MIC on nutrient agar
β-Haemolytic Strep. CN10 = assay: MIC on (nutrient) agar; conditions: β-Haemolytic Strep. CN10, agar; read-out: minimum inhibitory concentration (MIC)
Staph. aureus Oxford = assay: MIC on (nutrient) agar; conditions: Staphylococcus aureus, read-out: minimum inhibitory concentration (MIC)

SMILES | antibacterial activity [1] | MIC (Salmonella typhi) [µg/mL] | MIC (B. subtilis) [µg/mL] | MIC (Staph. aureus Russell) [µg/mL] | MIC (E. coli JT 1; JT1, E. coli JT 1, nutrient agar, read-out: minimum inhibitory concentration (MIC)) [µg/mL] | MIC (Klebsiella aerogenes A) [µg/mL] | MIC (Shigella sonnei) [µg/mL] | MIC (Proteus mirabilis C977; Proteus mirabilis C977, nutrient agar, read-out: minimum inhibitory concentration (MIC)) [µg/mL] | MIC (β-Haemolytic Strep. CN10) [µg/mL] | MIC (Staph. aureus Oxford) [µg/mL] | MIC (E. coli JT 1; JT1, read-out: minimum inhibitory concentration (MIC)) [µg/mL] | MIC (Proteus mirabilis C977; Proteus mirabilis, C977, read-out: minimum inhibitory concentration (MIC)) [µg/mL]
O=C(Cc1cccs1)N[C@@H]1C(=O)N2C(C(=O)O)=C(Cc3cccnc3)CS[C@H]12 [Example 2, 3(3-pyridylmethyl)-7β-(2-thienylacetamido)-3-cephem-4-carboxylic acid] | essentially similar to the trifluoroacetate salt described in Example 1 |  |  |  |  |  |  |  |  |  |  | 
O=C(Cc1ccncc1)N[C@@H]1C(=O)N2C(C(=O)O)=C(Cc3cccnc3)CS[C@H]12 [Example 17, 7β(4-pyridylacetamido)-3(3-pyridylmethyl)-3-cephem-4-carboxylic acid di-trifluoroacetic acid salt] |  | 10 | 0.25 | 25 | 25 | 10 | 25 | 10 | 0.12 | 0.12 |  | 
CN(C(=O)C=Cc1ccccc1)C(=O)N[C@@H](C(=O)N[C@@H]1C(=O)N2C(C(=O)O)=C(Cc3cccnc3)CS[C@H]12)c1ccccc1 [Example 20] |  | > 125 | 32 (≈ 52.3 µM) | 63 (≈ 103 µM) |  | 63 (≈ 103 µM) | 63 (≈ 103 µM) |  | 0.25 (≈ 0.409 µM) | 4 (≈ 6.54 µM) | 125 (≈ 204 µM) | > 125
